We go through 2 molecules from article doi:10.1101/2025.06.05.658145v1 (biorxiv, 2025).

As usually defined, the Km is the substrate concentration at which the rate is half of its maximum. For orientation: IC50 means the concentration that gives 50% inhibition. As usually defined, the Ki is a measure of affinity in units of concentration, obtained from inhibition or displacement. Lower therefore signals a stronger hold on the target.

Assay [1] relates to AcTyrA1. As to the kind of experiment: NADPH formation at […] nm, Michaelis-Menten fit. Type of assay: biochemical, Ananas comosus. As to conditions: 1 mM NADP+, 50 mM HEPES pH 7.5, 50 mM KCl, 37 °C.
The test system of assay [2] is SaTyrAnc. As to the kind of experiment: NADPH formation at […] nm, Michaelis-Menten fit. Type of assay: biochemical, Streptochaeta angustifolia. The conditions noted are these: 1 mM NADP+, 50 mM HEPES pH 7.5, 50 mM KCl, 37 °C.
Assay [3] deals with SaTyrA1. As to the kind of experiment: NADPH formation at […] nm, Michaelis-Menten fit. It is filed as biochemical, Streptochaeta angustifolia. As to conditions: 1 mM NADP+, 50 mM HEPES pH 7.5, 50 mM KCl, 37 °C.
In assay [4] the test system is JaTyrAnc. As to the kind of experiment: NADPH formation at […] nm, Michaelis-Menten fit. It is filed as biochemical, Joinvillea ascendens. As to conditions: 1 mM NADP+, 50 mM HEPES pH 7.5, 50 mM KCl, 37 °C.
The test system of assay [5] is AcTyrAnc. The experiment in a line: NADPH formation at […] nm, Michaelis-Menten fit. Type of assay: biochemical, Ananas comosus. The conditions noted are these: 1 mM NADP+, 50 mM HEPES pH 7.5, 50 mM KCl, 37 °C.
Assay [6] has as its system JaTyrA1. As to the kind of experiment: NADPH formation at […] nm, Michaelis-Menten fit. The conditions noted are these: 1 mM NADP+, 50 mM HEPES pH 7.5, 50 mM KCl, 37 °C. Type of assay: biochemical, Joinvillea ascendens.
Assay [7] concerns the target T1, OsTyrAnc (Oryza sativa, UniProt Q5Z6Y1).
T1 sequence (Q5Z6Y1 50-342): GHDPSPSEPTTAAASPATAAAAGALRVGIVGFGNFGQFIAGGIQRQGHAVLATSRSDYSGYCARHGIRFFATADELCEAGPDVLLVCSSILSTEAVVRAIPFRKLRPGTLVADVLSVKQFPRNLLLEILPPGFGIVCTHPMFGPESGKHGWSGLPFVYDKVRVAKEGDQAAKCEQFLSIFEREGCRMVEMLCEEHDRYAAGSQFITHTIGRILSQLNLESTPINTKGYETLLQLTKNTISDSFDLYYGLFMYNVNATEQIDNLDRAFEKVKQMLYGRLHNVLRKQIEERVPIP
The conditions noted are these: read-out: IC50 (µM Tyr); 500 uM arogenate, 1 mM NADP+; inhibitor.

For assay [8], the target named is JaTyrA1. As to conditions: competitive model; 500 µM arogenate, 1 mM NADP+, pH 7.5, 37 °C.
For assay [9], the target named is T1, OsTyrAnc. The conditions noted are these: competitive model; 500 µM arogenate, 1 mM NADP+, pH 7.5, 37 °C.
For assay [10], the target named is SaTyrAnc. The conditions noted are these: competitive model; 500 µM arogenate, 1 mM NADP+, pH 7.5, 37 °C.
Assay [11] addresses JaTyrAnc. The conditions noted are these: competitive model; 500 µM arogenate, 1 mM NADP+, pH 7.5, 37 °C.
Assay [12] concerns the target T2, OsTyrA1 (Oryza sativa, UniProt Q5Z9H5).
T2 sequence (Q5Z9H5 46-353): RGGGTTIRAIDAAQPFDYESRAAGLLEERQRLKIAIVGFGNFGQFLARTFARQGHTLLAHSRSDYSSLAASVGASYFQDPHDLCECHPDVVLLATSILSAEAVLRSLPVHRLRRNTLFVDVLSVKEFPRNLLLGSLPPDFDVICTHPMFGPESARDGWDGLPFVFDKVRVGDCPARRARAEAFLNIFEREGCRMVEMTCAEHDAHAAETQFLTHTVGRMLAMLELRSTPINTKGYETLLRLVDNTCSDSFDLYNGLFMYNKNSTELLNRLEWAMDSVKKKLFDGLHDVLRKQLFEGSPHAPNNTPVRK
The conditions noted are these: read-out: IC50 (µM Tyr); 500 uM arogenate, 1 mM NADP+; inhibitor.

Assay [13] has as its target T3, ZmTyrAnc (Zea mays, UniProt C0PK73).
T3 sequence (C0PK73 50-392): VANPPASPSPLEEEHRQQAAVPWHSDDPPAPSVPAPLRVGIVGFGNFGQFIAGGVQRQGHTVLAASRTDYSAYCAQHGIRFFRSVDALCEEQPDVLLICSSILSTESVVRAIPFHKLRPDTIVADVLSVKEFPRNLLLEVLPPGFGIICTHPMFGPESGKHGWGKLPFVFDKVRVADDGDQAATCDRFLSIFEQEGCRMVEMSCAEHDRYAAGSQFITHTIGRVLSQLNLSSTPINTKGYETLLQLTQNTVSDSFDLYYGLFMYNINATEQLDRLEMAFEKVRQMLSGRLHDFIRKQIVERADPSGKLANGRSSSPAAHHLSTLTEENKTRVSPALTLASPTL
As to conditions: read-out: IC50 (µM Tyr); 500 uM arogenate, 1 mM NADP+; inhibitor.

The target of assay [14] is AcTyrAnc. The conditions noted are these: competitive model; 500 µM arogenate, 1 mM NADP+, pH 7.5, 37 °C.
Assay [15] addresses T2, OsTyrA1. The conditions noted are these: competitive model; 500 µM arogenate, 1 mM NADP+, pH 7.5, 37 °C.
The target of assay [16] is AcTyrA1. As to conditions: competitive model; 500 µM arogenate, 1 mM NADP+, pH 7.5, 37 °C.
The target in assay [17] is T3, ZmTyrAnc. The conditions noted are these: competitive model; 500 µM arogenate, 1 mM NADP+, pH 7.5, 37 °C.
Assay [18] has as its target SaTyrA1. The conditions noted are these: competitive model; 500 µM arogenate, 1 mM NADP+, pH 7.5, 37 °C.

With `N[C@@H](CC1(C(=O)O)C=CC(O)C=C1)C(=O)O` (stereo partly drawn) [arogenate], the Km in the assay on AcTyrA1 [1] turned out to be 750 ± 80 µM; with SaTyrAnc [2] it was 350 ± 20 µM; in the assay with SaTyrA1 [3], 720 ± 90 µM; in the assay with JaTyrAnc [4], 1900 ± 240 µM; in the assay with AcTyrAnc [5] it was 1050 ± 170 µM; in the assay on JaTyrA1 [6], 730 ± 60 µM.
Take `N[C@@H](Cc1ccc(O)cc1)C(=O)O` [tyrosine]: the values for the half-inhibitory concentration (IC50) on OsTyrAnc [7], on OsTyrA1 [12] and on ZmTyrAnc [13] were 280 ± 70 µM, 53 ± 5 µM and 850 ± 30 µM, respectively. For the same molecule, the Ki was determined as 24 ± 4 µM at JaTyrA1 [8]; 78 ± 19 µM at OsTyrAnc [9]; 35 ± 8 µM at SaTyrAnc [10]; 106 ± 19 µM on JaTyrAnc [11]; 76 ± 30 µM on AcTyrAnc [14]; 21 ± 2 µM on OsTyrA1 [15]. Moreover, the Ki stood at 12 ± 6 µM on AcTyrA1 [16], 352 ± 13 µM on ZmTyrAnc [17] and 34 ± 23 µM at SaTyrA1 [18].
